Among the data in PubChem BioAssay (NCI) are TGI and GI50 values, retold here.

Some test systems named below: 786-0 renal; MOLT-4 leukemia; RXF 393 renal; SF-295 CNS; NCI-H522 lung; PC-3 prostate; SW-620 colon; SK-OV-3 ovarian; SK-MEL-28 melanoma; ACHN renal.
What all share (assay): DTP human tumour cell line panel, 48 h

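Five concentrations, 48 hours, 96-well plates. The concentration for 50% growth inhibition is given as GI50. Definition used: TGI = concentration required for complete inhibition of growth.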 A value given as a limit tells only on which side of the number the result lay.

As for `C[N+]1(CCN[N+]2(C)CCCCC2)CCc2ccccc2C1` (stereo not drawn), the TGI in the assay on 786-0 renal, with MOLT-4 leukemia, in the assay on RXF 393 renal, with SF-295 CNS, in the assay on NCI-H522 lung and in the assay with PC-3 prostate was over 100 µM in each case. The concentration for total growth inhibition (TGI) in the assay with SW-620 colon, in the assay on SK-OV-3 ovarian, in the assay on SK-MEL-28 melanoma and with ACHN renal was over 100 µM throughout.
As for `Oc1[nH]c2ccccc2c1/C=c1/cc2c(c(-c3ccc(F)cc3)n1)=Nc1ccccc1-2`, the GI50 was 2.17 µM with MOLT-4 leukemia; 0.634 µM in the assay with RXF 393 renal; 0.218 µM with NCI-H522 lung; 0.317 µM in the assay with PC-3 prostate; 0.438 µM with SW-620 colon; 0.848 µM in the assay with SK-OV-3 ovarian. The GI50 in the assay on SK-MEL-28 melanoma was 0.777 µM; in the assay on ACHN renal, 1.12 µM. Also, the concentration for total growth inhibition (TGI) came out at 5.41 µM in the assay on MOLT-4 leukemia; 1.96 µM in the assay with RXF 393 renal; 0.99 µM with NCI-H522 lung; 1.88 µM with PC-3 prostate; 2.43 µM with SW-620 colon; 3.15 µM in the assay on SK-OV-3 ovarian. Further, the concentration for total growth inhibition (TGI) is 2.47 µM with SK-MEL-28 melanoma and 2.54 µM in the assay on ACHN renal.
On to `COc1ccc(/C=N/n2cnc3[nH]c(C)c(Cc4ccccc4)c3c2=N)cc1`, for which the TGI with 786-0 renal was over 100 µM; in the assay with MOLT-4 leukemia, over 100 µM; with RXF 393 renal, 79.3 µM; with SF-295 CNS it was over 100 µM; with NCI-H522 lung it was over 100 µM; with PC-3 prostate it was over 100 µM. The TGI in the assay with SW-620 colon, in the assay on SK-OV-3 ovarian, in the assay on SK-MEL-28 melanoma and with ACHN renal was over 100 µM each time.
As for `CC(=O)N1CCn2c1nc1cc(Cl)ccc12`, the total growth inhibition concentration (TGI) was over 100 µM with 786-0 renal; over 100 µM in the assay with MOLT-4 leukemia; 53.9 µM in the assay on RXF 393 renal; over 100 µM in the assay with SF-295 CNS; over 100 µM in the assay on NCI-H522 lung; over 100 µM in the assay on PC-3 prostate. Further, the TGI with SW-620 colon was over 100 µM; with SK-OV-3 ovarian it was 68 µM; with SK-MEL-28 melanoma it was over 100 µM; with ACHN renal, over 100 µM.
Regarding `O=C1C(CN2CCOCC2)CCCC1CN1CCOCC1` (stereo not drawn), the TGI in the assay with 786-0 renal came to 2.61 µM; with MOLT-4 leukemia, 2.33 µM; with RXF 393 renal it was 4.14 µM; with SF-295 CNS it was 50.5 µM; in the assay with NCI-H522 lung, 0.156 µM; with PC-3 prostate, 28.9 µM. Moreover, the concentration for total growth inhibition (TGI) in the assay with SW-620 colon was found to be 0.911 µM; in the assay on SK-OV-3 ovarian, 51.8 µM; with SK-MEL-28 melanoma, 3.83 µM; in the assay with ACHN renal, 3.53 µM.
As for `CCCC(CCN)(CCN)[N+](=O)[O-]`, the TGI in the assay with 786-0 renal, with MOLT-4 leukemia, in the assay with RXF 393 renal, in the assay with SF-295 CNS, in the assay on NCI-H522 lung and in the assay on PC-3 prostate was over 100 µM throughout. Moreover, the concentration for total growth inhibition (TGI) in the assay on SW-620 colon, in the assay on SK-OV-3 ovarian and in the assay with ACHN renal was over 100 µM each time.
For the compound `COc1cc(C2c3cc4c(cc3OC(N3CCNCC3)C2C)OCO4)cc(OC)c1OC` (stereo not drawn), the total growth inhibition concentration (TGI) in the assay with 786-0 renal was 15.7 µM; in the assay on MOLT-4 leukemia it was 14.4 µM; with RXF 393 renal, 0.99 µM; in the assay on SF-295 CNS it was 0.822 µM; in the assay with NCI-H522 lung, 8.32 µM; in the assay with PC-3 prostate it was over 34.4 µM. Moreover, the TGI with SW-620 colon was 17.3 µM; in the assay on SK-OV-3 ovarian, over 23.4 µM; in the assay with SK-MEL-28 melanoma, 38.6 µM; in the assay on ACHN renal, 48.7 µM.
For the compound `CCOC(=O)C1=COC(C)(CCc2ccccc2)CC1=O` (stereo not drawn), the TGI in the assay on 786-0 renal is over 100 µM; in the assay with MOLT-4 leukemia, over 100 µM; with RXF 393 renal, over 100 µM; in the assay with SF-295 CNS it was over 100 µM; with NCI-H522 lung, 89.8 µM; in the assay with PC-3 prostate, over 100 µM. In addition, the total growth inhibition concentration (TGI) in the assay on SW-620 colon, with SK-OV-3 ovarian, in the assay on SK-MEL-28 melanoma and with ACHN renal was over 100 µM each time.
Consider `C(=C\N1CCCCC1)/c1nnnn1-c1ccccc1`, for which the TGI in the assay on 786-0 renal was over 100 µM; in the assay on MOLT-4 leukemia it was 41.9 µM; in the assay on RXF 393 renal it was 56.6 µM; in the assay with SF-295 CNS it was 66.9 µM; in the assay with NCI-H522 lung it was over 100 µM; in the assay with PC-3 prostate it was over 100 µM. Besides, the TGI in the assay with SW-620 colon was over 100 µM; with SK-OV-3 ovarian, 63.3 µM; in the assay with SK-MEL-28 melanoma, over 100 µM; in the assay with ACHN renal, over 100 µM.
As for `COc1cc(N(Cc2ccc3oc(=O)c(-c4ccccc4)nc3c2)Cc2ccc3oc(=O)c(-c4ccccc4)nc3c2)cc(OC)c1OC`, the TGI in the assay on 786-0 renal, in the assay on MOLT-4 leukemia, in the assay on RXF 393 renal, in the assay on SF-295 CNS, in the assay on NCI-H522 lung and in the assay with PC-3 prostate was over 10 µM each time. Moreover, the total growth inhibition concentration (TGI) in the assay on SW-620 colon, in the assay on SK-OV-3 ovarian, in the assay with SK-MEL-28 melanoma and with ACHN renal was over 10 µM throughout.
For the compound `COc1ccc(C(OCC2OC(n3ccc(NC(=O)c4ccccc4)nc3=O)CC2OP2(=S)SCCS2)(c2ccccc2)c2ccc(OC)cc2)cc1` (stereo not drawn), the TGI in the assay on 786-0 renal is 82 µM; in the assay with MOLT-4 leukemia, over 100 µM; in the assay with RXF 393 renal, 88.1 µM; with SF-295 CNS it was 97.9 µM; in the assay with NCI-H522 lung it was 53 µM; with PC-3 prostate, 41.5 µM. Moreover, the total growth inhibition concentration (TGI) in the assay with SW-620 colon turned out to be 44 µM; in the assay on SK-OV-3 ovarian, 64.2 µM; in the assay with SK-MEL-28 melanoma, 90.3 µM; in the assay with ACHN renal it was 61.5 µM.
On to `NC(Cc1ccc(S(=O)(=O)O)cc1)C(=O)NC(Cc1ccc(S(=O)(=O)O)cc1)C(=O)O` (stereo not drawn), for which the total growth inhibition concentration (TGI) with 786-0 renal, with MOLT-4 leukemia, in the assay with RXF 393 renal, in the assay on SF-295 CNS, in the assay on NCI-H522 lung and in the assay with PC-3 prostate was over 100 µM in each case. The TGI with SW-620 colon, in the assay with SK-MEL-28 melanoma and in the assay on ACHN renal was over 100 µM throughout.
Take `COc1cc(C2c3cc4c(cc3OC(NCCO)C2C)OCO4)cc(OC)c1OC` (stereo not drawn): the TGI is over 100 µM in the assay with 786-0 renal; 26.3 µM in the assay with MOLT-4 leukemia; over 100 µM with RXF 393 renal; 1.62 µM with NCI-H522 lung; over 100 µM in the assay with PC-3 prostate; over 100 µM in the assay on SW-620 colon. The concentration for total growth inhibition (TGI) was over 100 µM in the assay with SK-OV-3 ovarian, over 100 µM in the assay with SK-MEL-28 melanoma and over 91.5 µM with ACHN renal.

One may read the TGI as the concentration giving total growth inhibition. As a reminder, the GI50 is the concentration that inhibits growth by half.
